Measurements: ChEMBL document CHEMBL3045679, “Microwave-assisted synthesis and pharmacological studies of novel 5-deazaalloxazine derivatives” (2012)
Values after ≈ are worked out from the molar mass of the structure shown. Active and inactive are the calls of the source. The calls are words filed in the database; no cut-off is given here.

Experiments:
Lipomyces lipofer [1] = assay: Antifungal activity against Lipomyces lipofer NCIM 3252 at 500 ug/disk after 72 hr by disk diffusion method; format: functional
Escherichia coli [2] = assay: Antibacterial activity against Escherichia coli NCIM 2065 at 1000 ug/disk after 24 hr by disk diffusion method; format: functional; conditions: NCIM 2065, 24 h, read-out: DIZ
Bacillus cereus [3] = assay: Antibacterial activity against Bacillus cereus NCIM 2155 at 1000 ug/disk after 24 hr by disk diffusion method; format: functional; conditions: NCIM 2155, 24 h, read-out: DIZ
Streptomyces albus [4] = assay: Antibacterial activity against Streptomyces albus NCIM 2178 at 500 ug/disk after 24 hr by disk diffusion method; format: functional, organism-based
Klebsiella aerogenes [5] = assay: Antibacterial activity against Enterobacter aerogenes NCIM 2239 at 1000 ug/disk after 24 hr by disk diffusion method; format: functional; conditions: NCIM 2239, 24 h, read-out: DIZ
Aspergillus niger [6] = assay: Antifungal activity against Aspergillus niger NCIM 1196 at 1000 ug/disk after 72 hr by disk diffusion method; format: functional; conditions: NCIM 1196, 72 h, read-out: DIZ
Klebsiella aerogenes [7] = assay: Antibacterial activity against Enterobacter aerogenes NCIM 2239 after 24 hr by broth dilution assay; format: functional; conditions: NCIM 2239, 24 h
Bacillus subtilis [8] = assay: Antibacterial activity against Bacillus subtilis NCIM 2063 after 24 hr by broth dilution assay; format: functional; conditions: NCIM 2063, 24 h
Lipomyces lipofer [9] = assay: Antifungal activity against Lipomyces lipofer NCIM 3252 at 1000 ug/disk after 72 hr by disk diffusion method; format: functional
Aspergillus flavus [10] = assay: Antifungal activity against Aspergillus flavus NCIM 535 at 500 ug/disk after 72 hr by disk diffusion method; format: functional
Aspergillus niger [11] = assay: Antifungal activity against Aspergillus niger NCIM 1196 at 500 ug/disk after 72 hr by disk diffusion method; format: functional
Candida albicans [12] = assay: Antifungal activity against Candida albicans NCIM 3471 at 1000 ug/disk after 72 hr by disk diffusion method; format: functional
Candida albicans [13] = assay: Antifungal activity against Candida albicans NCIM 3471 at 500 ug/disk after 72 hr by disk diffusion method; format: functional
Rhodotorula mucilaginosa [14] = assay: Antifungal activity against Rhodotorula mucilaginosa NCIM 3174 at 500 ug/disk after 72 hr by disk diffusion method; format: functional
Penicillium chrysogenum [15] = assay: Antifungal activity against Penicillium chrysogenum NCIM 707 at 1000 ug/disk after 72 hr by disk diffusion method; format: functional
Bacillus subtilis [16] = assay: Antibacterial activity against Bacillus subtilis NCIM 2063 at 500 ug/disk after 24 hr by disk diffusion method; format: functional
Rhodotorula mucilaginosa [17] = assay: Antifungal activity against Rhodotorula mucilaginosa NCIM 3174 at 1000 ug/disk after 72 hr by disk diffusion method; format: functional
Penicillium chrysogenum [18] = assay: Antifungal activity against Penicillium chrysogenum NCIM 707 at 500 ug/disk after 72 hr by disk diffusion method; format: functional
Pseudomonas aeruginosa [19] = assay: Antibacterial activity against Pseudomonas aeruginosa NCIM 2200 after 24 hr by broth dilution assay; format: functional; conditions: NCIM 2200, 24 h
Aspergillus flavus [20] = assay: Antifungal activity against Aspergillus flavus NCIM 535 at 1000 ug/disk after 72 hr by disk diffusion method; format: functional; conditions: NCIM 535, 72 h, read-out: DIZ
Escherichia coli [21] = assay: Antibacterial activity against Escherichia coli NCIM 2065 at 500 ug/disk after 24 hr by disk diffusion method; format: functional; conditions: NCIM 2065, 24 h, read-out: DIZ
Klebsiella aerogenes [22] = assay: Antibacterial activity against Enterobacter aerogenes NCIM 2239 at 500 ug/disk after 24 hr by disk diffusion method; format: functional
Bacillus subtilis [23] = assay: Antibacterial activity against Bacillus subtilis NCIM 2063 at 1000 ug/disk after 24 hr by disk diffusion method; format: functional; conditions: NCIM 2063, 24 h, read-out: DIZ
Bacillus cereus [24] = assay: Antibacterial activity against Bacillus cereus NCIM 2155 at 500 ug/disk after 24 hr by disk diffusion method; format: functional; conditions: NCIM 2155, 24 h, read-out: DIZ
Escherichia coli [25] = assay: Antibacterial activity against Escherichia coli NCIM 2065 after 24 hr by broth dilution assay; format: functional; conditions: NCIM 2065, 24 h
Bacillus cereus [26] = assay: Antibacterial activity against Bacillus cereus NCIM 2155 after 24 hr by broth dilution assay; format: functional; conditions: NCIM 2155, 24 h
Pseudomonas aeruginosa [27] = assay: Antibacterial activity against Pseudomonas aeruginosa NCIM 2200 at 1000 ug/disk after 24 hr by disk diffusion method; format: functional; conditions: NCIM 2200, 24 h, read-out: DIZ
Streptomyces albus [28] = assay: Antibacterial activity against Streptomyces albus NCIM 2178 at 1000 ug/disk after 24 hr by disk diffusion method; format: functional
Pseudomonas aeruginosa [29] = assay: Antibacterial activity against Pseudomonas aeruginosa NCIM 2200 at 500 ug/disk after 24 hr by disk diffusion method; format: functional; conditions: NCIM 2200, 24 h, read-out: DIZ
Aspergillus niger [30] = assay: Antifungal activity against Aspergillus niger NCIM 1196 after 72 hr by broth dilution assay; format: functional; conditions: NCIM 1196, 72 h
Lipomyces lipofer [31] = assay: Antifungal activity against Lipomyces lipofer NCIM 3252 after 72 hr by broth dilution assay; format: functional; conditions: NCIM 3252, 72 h

Structure (SMILES)	zone of inhibition at 1000 µg/disc (Escherichia coli [2])	zone of inhibition at 1000 µg/disc (Bacillus cereus [3])	diameter of the inhibition zone (DIZ) (Streptomyces albus [4])	zone of inhibition at 1000 µg/disc (Klebsiella aerogenes [5])	zone of inhibition at 1000 µg/disc (Aspergillus niger [6])	MIC (Klebsiella aerogenes [7])	MIC (Bacillus subtilis [8])	diameter of the inhibition zone (DIZ) (Aspergillus flavus [10])	diameter of the inhibition zone (DIZ) (Candida albicans [13])	diameter of the inhibition zone (DIZ) (Rhodotorula mucilaginosa [14])	diameter of the inhibition zone (DIZ) (Penicillium chrysogenum [18])	MIC (Pseudomonas aeruginosa [19])	zone of inhibition at 1000 µg/disc (Aspergillus flavus [20])	zone of inhibition at 500 µg/disc (Escherichia coli [21])	zone of inhibition at 1000 µg/disc (Bacillus subtilis [23])	zone of inhibition at 500 µg/disc (Bacillus cereus [24])	MIC (Escherichia coli [25])	MIC (Bacillus cereus [26])	zone of inhibition at 1000 µg/disc (Pseudomonas aeruginosa [27])	diameter of the inhibition zone (DIZ) (Streptomyces albus [28])	further results
O=c1[nH]c(=O)c2cc3cc(Br)ccc3nc2[nH]1	11 mm	11 mm	inactive	10 mm	12 mm	62.5 µg/mL (≈ 214 µM)	31.2 µg/mL (≈ 107 µM)	inactive	inactive	inactive	inactive	31.2 µg/mL (≈ 107 µM)	11 mm	7 mm	12 mm	8 mm	7.8 µg/mL (≈ 26.7 µM)	62.5 µg/mL (≈ 214 µM)	12 mm	inactive	diameter of the inhibition zone (DIZ) (Lipomyces lipofer [1]): inactive; diameter of the inhibition zone (DIZ) (Lipomyces lipofer [9]): inactive; diameter of the inhibition zone (DIZ) (Aspergillus niger [11]): inactive; diameter of the inhibition zone (DIZ) (Candida albicans [12]): inactive; diameter of the inhibition zone (DIZ) (Penicillium chrysogenum [15]): inactive; diameter of the inhibition zone (DIZ) (Bacillus subtilis [16]): inactive; diameter of the inhibition zone (DIZ) (Rhodotorula mucilaginosa [17]): inactive; diameter of the inhibition zone (DIZ) (Klebsiella aerogenes [22]): inactive; zone of inhibition at 500 µg/disc (Pseudomonas aeruginosa [29]): 9 mm; MIC (Aspergillus niger [30]): 62.5 µg/mL (≈ 214 µM)
O=c1[nH]c(=S)[nH]c2nc3ccc(Cl)cc3cc12	10 mm	13 mm	inactive	10 mm	14 mm	31.2 µg/mL (≈ 118 µM)	3.9 µg/mL (≈ 14.8 µM)	inactive	inactive	inactive	inactive	7.8 µg/mL (≈ 29.6 µM)	10 mm	8 mm	14 mm	9 mm	62.5 µg/mL (≈ 237 µM)	62.5 µg/mL (≈ 237 µM)	13 mm	inactive	zone of inhibition at 500 µg/disc (Lipomyces lipofer [1]; NCIM 3252, 72 h, read-out: DIZ): 9 mm; MIC (Lipomyces lipofer [31]): 7.8 µg/mL (≈ 29.6 µM); zone of inhibition at 1000 µg/disc (Lipomyces lipofer [9]; NCIM 3252, 72 h, read-out: DIZ): 15 mm; zone of inhibition at 500 µg/disc (Aspergillus niger [11]; NCIM 1196, 72 h, read-out: DIZ): 11 mm; zone of inhibition at 1000 µg/disc (Candida albicans [12]; NCIM 3471, 72 h, read-out: DIZ): 11 mm; zone of inhibition at 1000 µg/disc (Penicillium chrysogenum [15]; NCIM 707, 72 h, read-out: DIZ): 10 mm; zone of inhibition at 500 µg/disc (Bacillus subtilis [16]; NCIM 2063, 24 h, read-out: DIZ): 11 mm; zone of inhibition at 1000 µg/disc (Rhodotorula mucilaginosa [17]; NCIM 3174, 72 h, read-out: DIZ): 12 mm; zone of inhibition at 500 µg/disc (Klebsiella aerogenes [22]; NCIM 2239, 24 h, read-out: DIZ): 8 mm; zone of inhibition at 500 µg/disc (Pseudomonas aeruginosa [29]): 10 mm; MIC (Aspergillus niger [30]): 3.9 µg/mL (≈ 14.8 µM)
